Results: patent US20200247855A1, “THERAPY AND DIAGNOSTICS” (OXFORD UNIVERSITY INNOVATION LIMITED, priority 2017, published 2020)
One block for each molecule: values may come before it. Residues, ends and D or L forms follow the SMILES beside them. No end group written: not given here. *: point of attachment. FITC = O=C1OC2(c3ccc(O)cc3Oc3cc(O)ccc32)c2ccc(NC(=S)*)cc21

Legend:
CCL8 = target: T1, CCL8 (Homo sapiens, UniProt P80075); assay: Fluorescence polarisation (anisotropy) assay; assay type: binding; conditions: labelled peptide 50 nM, CCL8 1 μM
T1 construct: SUMO (in-house protein only) (cleaved yes); made in house; host or cells: Escherichia coli RosettaGami 2 (DE3)
T1 sequence (P80075 24-99): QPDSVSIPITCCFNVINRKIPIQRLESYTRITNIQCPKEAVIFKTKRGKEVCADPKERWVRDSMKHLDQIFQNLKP
Source text: FIG. 14. Characterisation of P672_PEP-FITC by fluorescence polarisation. […] Residue C30 was mutated to A to avoid an unpaired cysteine residue. The residues corresponding to the above peptide are wholly contained within the CCL8-binding region of P672_RHIPU transferred in the hybrid evasin P672:EVA1 (SEQ ID 76, see FIG. 5). […] (SEQ ID NO: 90). FIG. 14(A). […] The curve was fitted to the two site-total and non-specific binding model in GraphPad Prism 6. Data are shown as mean and SEM of three independent experiments, with each independent experiment performed as three technical replicates. The affinity constant Kd was calculated in GraphPad Prism from the curve fit with the standard error reported.
FIG. 14(B). […] The measured fluorescence anisotropy (y-axis) of P672_PEP-FITC (50 nM) following binding to a fixed dose (1 μM)) of CCL7, CCL8, CCL18 and CXCL1 (negative control). […] Statistical significance was determined using one-way ANOVA with Sidak's correction for multiple comparisons using Graph Pad Prism 6. **=p<0.005, ****=P<0.00005, ns=not significant.
FIG. 15(C). […] In each case 100 μM (++) or […] (+) of P672_PEP was incubated with P672_PEP-FITC (50 nM)/chemokine (1 μM CCL7 and CCL18; 500 nM CCL8) and the resulting anisotropy measured. […] Experiment carried out in triplicate where each data point is the average of one experiment carried out in technical triplicate. Mean with SEM shown and statistical significance was determined using one-way ANOVA with Sidak's correction for multiple comparisons using Graph Pad Prism 6. *=p<0.05, ***=p<0.0005, ****=P<0.00005, ns=not significant.
Fluorescence polarization assays were performed using a Clariostar (BMG Tech) plate reader with the supplied FITC excitation and emission filters using 96 half area well plates (Corning). The buffer used (FP assay buffer) was 50 mM HEPES, 150 mM NaCl, 0.1% BSA, 0.002% TWEEN-20, 0.2% DMSO, pH 7.4 and the final volume in each well was 30 μL. Polarization was converted to anisotropy using the equation A=(2*P)/(3−P) where P is polarization and A is anisotropy. For each peptide tested the gain was set to 35 mP and adjusted to a well containing fluorescent peptide only. The polarization of the emitted light in the FITC emission channel was then determined. Experiments were performed as two technical and three biological replicates. Screening of P672 peptide fragments was achieved through incubation of each peptide (50 nM) with 1 μM CCL8 (Peprotech) for 30 minutes in FP assay buffer and the resulting anisotropy of the emitted light determined as above. The chemokine cross binding screen was performed by incubating 1 μM chemokine (Peprotech) with 50 nM BK1.1FITC for half an hour in FP assay buffer and the resulting anisotropy of the emitted light determined as above. […] The anisotropy was plotted as a function of CCL8 concentration and fitted to the equation: Y=Bmax*X/(KD+X)+NS*X+Background, where Y is the measured anisotropy, X is the concentration of CCL8 added, Bmax is the maximum binding, KD is the equilibrium dissociation constant, NS is the slope of the nonlinear regression and Background is the anisotropy when no CCL8 is present, in Graph Pad Prism. Displacement assays were carried out with CCL7, CCL8, and CCL18 (Peprotech, 1 μM). […] For all FP assays, the experiments were carried out as two technical and three biological replicates.

CCL18 = target: T2, CCL18 (Homo sapiens, UniProt P55774); assay: Fluorescence polarisation (anisotropy) assay; assay type: binding; conditions: labelled peptide 50 nM, chemokine 1 μM
T2 construct: purchased Peprotech
T2 sequence (P55774 21-89): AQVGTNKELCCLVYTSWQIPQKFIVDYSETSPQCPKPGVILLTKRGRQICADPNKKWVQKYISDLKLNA
Procedure: (§1) FIG. 14(B). Fluorescence polarisation assay showing binding of chemokines to P672_PEP-FITC. The measured fluorescence anisotropy (y-axis) of P672_PEP-FITC (50 nM) following binding to a fixed dose (1 μM)) of CCL7, CCL8, CCL18 and CXCL1 (negative control). […] Statistical significance was determined using one-way ANOVA with Sidak's correction for multiple comparisons using Graph Pad Prism 6. **=p<0.005, ****=P<0.00005, ns=not significant.
(§2) FIG. 15(C). Displacement of P672_PEP-FITC from CCL18 by P672_PEP. In each case 100 μM (++) or […] (+) of P672_PEP was incubated with P672_PEP-FITC (50 nM)/chemokine (1 μM CCL7 and CCL18; 500 nM CCL8) and the resulting anisotropy measured. A peptide with the P672_PEP sequence scrambled ([…]) served as a negative control (P672_PEP_SCRAM; […]). Experiment carried out in triplicate where each data point is the average of one experiment carried out in technical triplicate. Mean with SEM shown and statistical significance was determined using one-way ANOVA with Sidak's correction for multiple comparisons using Graph Pad Prism 6. *=p<0.05, ***=p<0.0005, ****=P<0.00005, ns=not significant.
(§3) Fluorescence polarization assays were performed using a Clariostar (BMG Tech) plate reader with the supplied FITC excitation and emission filters using 96 half area well plates (Corning). The buffer used (FP assay buffer) was 50 mM HEPES, 150 mM NaCl, 0.1% BSA, 0.002% TWEEN-20, 0.2% DMSO, pH 7.4 and the final volume in each well was 30 μL. Polarization was converted to anisotropy using the equation A=(2*P)/(3−P) where P is polarization and A is anisotropy. For each peptide tested the gain was set to 35 mP and adjusted to a well containing fluorescent peptide only. The polarization of the emitted light in the FITC emission channel was then determined. Experiments were performed as two technical and three biological replicates. Screening of P672 peptide fragments was achieved through incubation of each peptide (50 nM) with 1 μM CCL8 (Peprotech) for 30 minutes in FP assay buffer and the resulting anisotropy of the emitted light determined as above. The chemokine cross binding screen was performed by incubating 1 μM chemokine (Peprotech) with 50 nM BK1.1FITC for half an hour in FP assay buffer and the resulting anisotropy of the emitted light determined as above. To monitor BK1.1FITC Ala mutants of binding to CCL8, 50 nM labelled peptide was incubated with varying concentrations of recombinant CCL8 (0-25 μM, final) in 30 μL FP assay buffer for 30 minutes and the resulting anisotropy of the emitted light determined as above. The anisotropy was plotted as a function of CCL8 concentration and fitted to the equation: Y=Bmax*X/(KD+X)+NS*X+Background, where Y is the measured anisotropy, X is the concentration of CCL8 added, Bmax is the maximum binding, KD is the equilibrium dissociation constant, NS is the slope of the nonlinear regression and Background is the anisotropy when no CCL8 is present, in Graph Pad Prism. Displacement assays were carried out with CCL7, CCL8, and CCL18 (Peprotech, 1 μM). […] For all FP assays, the experiments were carried out as two technical and three biological replicates.

CCL7 = target: T3, CCL7 (Homo sapiens, UniProt P80098); assay: Fluorescence polarisation (anisotropy) assay; assay type: binding; conditions: labelled peptide 50 nM, chemokine 1 μM
T3 construct: purchased Peprotech
Procedure: as §1, §2, §3

CXCL1 = target: T4, CXCL1 (Homo sapiens, UniProt P09341); assay: Fluorescence polarisation (anisotropy) assay; assay type: binding; conditions: labelled peptide 50 nM, chemokine 1 μM; negative control chemokine
T4 sequence (P09341 35-107): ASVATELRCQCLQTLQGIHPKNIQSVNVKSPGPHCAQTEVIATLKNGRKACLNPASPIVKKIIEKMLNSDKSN
Procedure: as §1
Fluorescence polarization assays were performed using a Clariostar (BMG Tech) plate reader with the supplied FITC excitation and emission filters using 96 half area well plates (Corning). The buffer used (FP assay buffer) was 50 mM HEPES, 150 mM NaCl, 0.1% BSA, 0.002% TWEEN-20, 0.2% DMSO, pH 7.4 and the final volume in each well was 30 μL. […] The polarization of the emitted light in the FITC emission channel was then determined. […] Screening of P672 peptide fragments was achieved through incubation of each peptide (50 nM) with 1 μM CCL8 (Peprotech) for 30 minutes in FP assay buffer and the resulting anisotropy of the emitted light determined as above. The chemokine cross binding screen was performed by incubating 1 μM chemokine (Peprotech) with 50 nM BK1.1FITC for half an hour in FP assay buffer and the resulting anisotropy of the emitted light determined as above. […]

[1] = target: T5, His-tagged P672-biotinylated CCL2 interaction (Homo sapiens, UniProt P13500); assay: AlphaScreen disruption of P672:chemokine interaction; assay type: binding; conditions: AlphaScreen, peptide 100 μM
T5 construct: host or cells: P672: HEK293F (in-house); biotinylated CCL2: not described
Procedure: (§4) B-D. Effect of indicated peptides at a concentration of 100 μM on a His-tagged P672-biotinylated CCL8, CCL2 or CCL3 interaction respectively using an AlphaScreen assay. In each panel. […] Data are presented as mean±s.e.m. of three independent experiments, shown as individual data points.
(§5) Data are shown as mean of two technical replicates. Curves were fitted with 4 parameters to estimate IC50.
(§6) The binding of these peptides to CCL8 was assayed by examining their ability to disrupt the P672:CCL8 interaction using an AlphaScreen assay (FIG. 20E, H). […] BK1 derivatives were tested for their ability to inhibit P672 interactions with CCL2 and CCL3 using AlphaScreen (FIG. 20 F, G, I, J).
(§7) AlphaScreen® Histidine detection kit was purchased from PerkinElmer (6760619M lot: 2457886) and the assay was set up in white bottom Proxiplate™ 384 Plus microplates (PerkinElmer) following the manufacturer's instructions. The assay buffer used was 50 mM HEPES, 150 mM NaCl, 0.1% BSA, 0.01% Tween20, 1% DMSO, pH 7.5 and the final volume in each well was 20 μL. Briefly, biotinylated chemokine (recombinant, final concentration 1.25 nM (CCL8), 5 nM (CCL2) and 2.5 nM (CCL3)) was pre-incubated at room temperature for 15 min with different concentrations of each peptide. His-tagged P672 (final concentration 2.5 nM (CCL8), 5 nM (CCL2) and 1.25 nM (CCL3)) was then added to each well and the plate was incubated at room temperature for 30 min. Finally, acceptor and donor beads were added as a 1:1 suspension in buffer to each well and the plate was further incubated at RT for 1 h. Data was obtained by reading the plate using a Pherastar FSX plate reader (excitation 680 nm, emission 570 nm) and was analysed using GraphPad Prism.

[2] = target: T6, His-tagged P672-biotinylated CCL8 interaction (Homo sapiens, UniProt P80075); assay: as above; assay type: binding; conditions: peptide 100 μM
T6 construct: SUMO (cleaved yes); biotin (enzymatic, BirA co-expression); made in house; host or cells: CCL8: Escherichia coli RosettaGami 2 (DE3); P672: HEK293F
T6 sequence (P80075 24-99): T1 sequence (P80075 24-99)
Procedure: as §4, §5, §6, §7

[3] = target: T7, His-tagged P672-biotinylated CCL3 interaction (Homo sapiens, UniProt P10147); assay: as above; assay type: binding; conditions: AlphaScreen, peptide 100 μM
T7 construct: host or cells: P672: HEK293F (in-house); biotinylated CCL3: not described
T7 sequence (P10147 24-92): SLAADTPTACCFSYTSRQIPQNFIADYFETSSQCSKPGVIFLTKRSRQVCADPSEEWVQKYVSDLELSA
Procedure: as §4, §5, §6, §7

[4] = system: human CCL5 together with CXCL8, CXCL1, CCL3 or CCL2; assay: Biolayer interferometry polyvalent binding (association with CCL5, then CCL5 plus second chemokine); conditions: BLI, wavelength shift in association 2
Source text: FIG. 10. Polyvalent binding of CC and CXC chemokines to two-warhead evasins. […] This was followed by association with CCL5+CXCL8 (light grey trace), or with CCL5+CXCL1 (dark grey trace) or CCL5+CCL3 (black trace) (association 2), and then dissociated in buffer (dissociation).
FIG. 11. Polyvalent binding of CC and CXC chemokines to two-warhead evasins. […] This was followed by association with CCL5+CXCL8 (light grey trace), or with CCL5+CXCL1 (dark grey trace) or CCL5+CCL2 (black trace) (association 2), and then dissociated in buffer (dissociation).
The ability of 2-warhead evasins to engage in polyvalent binding of CC and CXC chemokines was further determined.

T3 sequence (P80098 24-99): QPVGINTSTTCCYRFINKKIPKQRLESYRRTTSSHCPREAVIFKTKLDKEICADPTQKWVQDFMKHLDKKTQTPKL
human CCL5 together with CXCL8, CXCL1, CCL3 or CCL2, sequence (P13501 24-91): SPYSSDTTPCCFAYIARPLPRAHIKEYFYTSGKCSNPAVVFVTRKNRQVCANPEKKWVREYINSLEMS
T5 sequence (P13500 24-99): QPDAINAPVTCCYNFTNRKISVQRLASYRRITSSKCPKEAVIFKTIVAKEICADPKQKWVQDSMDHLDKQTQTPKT

Molecule: CC(C)[C@H](NC(=O)[C@@H]1CCCN1C(=O)[C@H](CCCCN)NC(=O)[C@H](Cc1ccccc1)NC(=O)[C@H](Cc1ccccc1)NC(=O)[C@H](CC(=O)O)NC(=O)[C@H](CCC(=O)O)NC(=O)[C@H](Cc1ccc(O)cc1)NC(=O)[C@H](CC(=O)O)NC(=O)[C@H](CCC(=O)O)NC(=O)[C@H](CC(=O)O)NC(=O)[C@H](CCC(=O)O)NC(=S)Nc1ccc2c(c1)C(=O)OC21c2ccc(O)cc2Oc2cc(O)ccc21)C(=O)N[C@H](C(=O)N[C@@H](C)C(=O)N[C@@H](Cc1ccc(O)cc1)C(=O)N[C@@H](Cc1ccccc1)C(N)=O)[C@@H](C)O [BK1.1FITC] ({FITC}-EDEDYEDFFKPVTAYF-NH2)
- Binding to CCL8 (change in anisotropy) (CCL8): significant increase in anisotropy
- Binding to CCL8 (change in anisotropy) (CCL8; listed as BK1.1FTC): increase in anisotropy
- Binding to CCL8 (change in anisotropy) (CCL8; listed as P672_PEP-FITC): able to bind
- Binding to CCL18 (change in anisotropy) (CCL18): significant increase in anisotropy
- Binding to CCL18 (change in anisotropy) (CCL18; listed as P672_PEP-FITC): able to bind
- Binding to CCL7 (change in anisotropy) (CCL7): significant increase in anisotropy
- Binding to CCL7 (change in anisotropy) (CCL7; listed as P672_PEP-FITC): able to bind
- Binding to CXCL1 (change in anisotropy) (CXCL1): not

- Disruption of the P672-CCL2 interaction [1]: disrupted
- Disruption of the P672-CCL8 interaction [2]: significantly disrupt
- Disruption of the P672-CCL3 interaction [3]: disrupted
Molecule: Y21F32: shorter peptide Y21-F32 of P672 without the C30A mutation (YEDFFKPVTCYF-NH2)

Molecule: P1243:P1156: two-warhead evasin: P1243_AMBAM linked via GGGGS linker to P1156_IXORI
- Polyvalent (simultaneous) binding of CC and CXC chemokines [4]: can associate simultaneously with CCL5 and either CXCL8 or CXCL1
